Earlier results on 1 compound are cited in patent US6622729B1, “Selective photodynamic treatment” (priority 1999, dated 2003).

Structures are written as SMILES.

For the data set the following is noted: SnET2 administered in 0.5 and 1 mg/kg doses.

Turning to `CCOC(=O)C1=Cc2c3nc(cc4nc(cc5[n-]c(cc6[n-]c2c(C)c6CC)c(C)c5CC)C(C)=C4CC)[C@@H](C)[C@]13CC.[Cl-].[Cl-].[Sn]` (racemic) [SnET2, tin ethyl etiopurpurin], the systemic toxicity entry is on record as “no apparent systemic toxicity”.
